The test system of the experiment is involucrin. Briefly: Involucrin synthesis in normal human keratinocytes, ELISA assay. The experiment is classed as cell-based. The conditions noted are these: for MEAN (% involucrin detected): relative to the control, n=3; for stimulation of involucrin synthesis: at the concentrations tested, corresponding to those present in the cosmetic ingredient of example 4. As for the experimental part: Normal, that is to say non-pathological, human keratinocytes were cultured in an MCDB153 medium (Dutscher France) containing 2% of fetal calf serum. After culture for 3 days at 37° C., the growth medium was replaced with MCDB153 medium containing various final concentrations of extract of N. lappaceum (by weight relative to the total volume of the medium) or without extract (Control) (table 1). The culture medium was replaced then solubilized in an extraction buffer. The amount of involucrin was quantified by ELISA assay. The results obtained are expressed as % relative to the control (n=3) (MEAN: mean; SD: Standard deviation).
Normal, that is to say non-pathological, human keratinocytes were cultured in an MCDB153 medium (Dutscher France) containing 2% of fetal calf serum. After culture for 3 days at 37° C., the growth medium was replaced with MCDB153 medium containing two final concentrations of ellagic acid or of geranin (w/v final medium) or without ellagic acid or without geranin (Control) (table 3). The culture medium was replaced. The amount of involucrin was quantified by ELISA assay. The results obtained are expressed as % relative to the control (n=3).
In general terms: In an ELISA, binding on a coated surface is turned into a signal by an enzyme label.

Regarding `O=c1oc2c(O)c(O)cc3c(=O)oc4c(O)c(O)cc1c4c23` [Ellagic acid, ellagic acid], the “stimulation of involucrin synthesis” value is on record as “Neither ellagic acid nor geranin stimulated involucrin synthesis”. In addition, the “MEAN (% involucrin detected)” value (1.1 × 10^−4% (w/v medium)) turned out to be 68%. Besides, the “MEAN (% involucrin detected)” value (1.9 × 10^−4% (w/v medium)) stood at 32%.
For `O=C1O[C@H]2[C@@H]3OC(=O)c4cc(O)c(O)c(O)c4-c4c(cc(O)c(O)c4O)C(=O)OC[C@H]2O[C@@H](OC(=O)c2cc(O)c(O)c(O)c2)[C@@H]3OC(=O)c2cc(O)c(O)c3c2[C@@H]2C1=CC(=O)[C@](O)(O3)C2(O)O` [Geranin, geranin], the “stimulation of involucrin synthesis” value is listed as “Neither ellagic acid nor geranin stimulated involucrin synthesis”. Also, the “MEAN (% involucrin detected)” value (1.5 × 10^−3% (w/v medium)) is recorded as 29%. For the same compound, the “MEAN (% involucrin detected)” value (9 × 10^−4% (w/v medium)) amounted to 78%.

Source of the values: patent US11547655B2, “Use of an extract of the pericarp of Nephelium lappaceum for hydrating the skin and/or mucous membranes” (BASF Beauty Care Solutions France S.A.S., priority 2017, dated 2023).
